One assay addresses T1, PDGF-Ra (Homo sapiens, UniProt P16234).
T1 construct: host or cells: G-292 human osteosarcoma cells
Briefly: Inhibitory activity against PDGF-Ra phosphorylation by PDGF-AA stimulation using G292. The format is cell-based. The following applies: for pIC50: > means inhibition at indicated concentration not more than 50%, < and << not less than 50%, read-out: PDGF (E) IC50; for inhibition at 0.1 µM: G292, figure within parentheses in >100( ), at 100 nM, read-out: PDGF (E) inhibition (%) at 100 nM. Summed up: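 Cells seeded in low-serum medium are exposed to test compound for one hour, then PDGF-AA (50 ng/ml) triggers receptor phosphorylation for 5 min at 37 °C. Phospho-PDGF-Ra in solubilized cells is quantified by anti-phosphotyrosine capture ELISA at 450 nm.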

The target in the next assay is T2, c-kit (Homo sapiens, UniProt P10721).
T2 construct: MO7e (human megakaryocytic leukemia cell line) which had been arrested for 20 hr; endogenous in cells; host or cells: MO7e human megakaryocytic leukemia cell line
T2 sequence (P10721 26-976): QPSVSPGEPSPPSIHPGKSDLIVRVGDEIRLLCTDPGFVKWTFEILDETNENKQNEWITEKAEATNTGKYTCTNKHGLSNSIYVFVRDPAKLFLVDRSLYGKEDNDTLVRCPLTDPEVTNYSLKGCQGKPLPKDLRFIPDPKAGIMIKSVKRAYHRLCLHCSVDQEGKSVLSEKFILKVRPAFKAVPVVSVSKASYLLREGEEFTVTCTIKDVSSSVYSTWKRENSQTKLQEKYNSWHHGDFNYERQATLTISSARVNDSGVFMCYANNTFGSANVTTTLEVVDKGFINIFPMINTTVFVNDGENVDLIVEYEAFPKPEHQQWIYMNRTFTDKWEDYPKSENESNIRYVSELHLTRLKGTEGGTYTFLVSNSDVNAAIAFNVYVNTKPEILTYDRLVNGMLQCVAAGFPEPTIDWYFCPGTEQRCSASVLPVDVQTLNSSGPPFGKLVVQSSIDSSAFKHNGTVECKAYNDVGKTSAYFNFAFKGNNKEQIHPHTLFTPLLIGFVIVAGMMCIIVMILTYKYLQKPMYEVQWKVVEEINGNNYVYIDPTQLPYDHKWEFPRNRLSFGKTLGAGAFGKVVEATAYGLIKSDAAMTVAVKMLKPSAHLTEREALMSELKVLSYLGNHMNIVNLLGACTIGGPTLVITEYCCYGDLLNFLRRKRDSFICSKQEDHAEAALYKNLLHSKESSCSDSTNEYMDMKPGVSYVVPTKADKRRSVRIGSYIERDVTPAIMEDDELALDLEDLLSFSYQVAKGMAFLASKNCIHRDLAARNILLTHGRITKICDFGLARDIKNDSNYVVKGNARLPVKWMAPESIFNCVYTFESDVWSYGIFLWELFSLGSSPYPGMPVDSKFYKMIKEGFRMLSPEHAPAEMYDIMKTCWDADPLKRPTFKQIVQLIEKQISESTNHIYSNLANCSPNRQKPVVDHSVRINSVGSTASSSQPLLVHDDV
Put plainly: Inhibitory activity against c-kit autophosphorylation (MO7e cells, h-SCF). It is filed as cell-based. The following applies: for inhibition at 1 µM: Mo7e, figure within parentheses in −( ) or >1000( ), at 1000 nM; for pIC50: MO7e cells, 50 ng/ml h-SCF, read-out: c-kit IC50. In short, it runs like this:
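Phospho-c-kit ELISA: plate-bound PY-20 anti-phosphotyrosine captures lysate, anti-c-kit plus peroxidase-labelled secondary antibody detect, read at 450 nm. Lysates come from 20 hr-arrested MO7e cells given compound for 1 hr before a 5 min 50 ng/ml h-SCF stimulus.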

Data on 30 compounds can be found in patent US7135466B2 (Kirin Beer Kabushiki Kaisha, priority 1999, dated 2006).

pIC50: −log10 of the molar value. Where only a bound is given, the exact number is not on record here.

T1 sequence (P16234 24-1089): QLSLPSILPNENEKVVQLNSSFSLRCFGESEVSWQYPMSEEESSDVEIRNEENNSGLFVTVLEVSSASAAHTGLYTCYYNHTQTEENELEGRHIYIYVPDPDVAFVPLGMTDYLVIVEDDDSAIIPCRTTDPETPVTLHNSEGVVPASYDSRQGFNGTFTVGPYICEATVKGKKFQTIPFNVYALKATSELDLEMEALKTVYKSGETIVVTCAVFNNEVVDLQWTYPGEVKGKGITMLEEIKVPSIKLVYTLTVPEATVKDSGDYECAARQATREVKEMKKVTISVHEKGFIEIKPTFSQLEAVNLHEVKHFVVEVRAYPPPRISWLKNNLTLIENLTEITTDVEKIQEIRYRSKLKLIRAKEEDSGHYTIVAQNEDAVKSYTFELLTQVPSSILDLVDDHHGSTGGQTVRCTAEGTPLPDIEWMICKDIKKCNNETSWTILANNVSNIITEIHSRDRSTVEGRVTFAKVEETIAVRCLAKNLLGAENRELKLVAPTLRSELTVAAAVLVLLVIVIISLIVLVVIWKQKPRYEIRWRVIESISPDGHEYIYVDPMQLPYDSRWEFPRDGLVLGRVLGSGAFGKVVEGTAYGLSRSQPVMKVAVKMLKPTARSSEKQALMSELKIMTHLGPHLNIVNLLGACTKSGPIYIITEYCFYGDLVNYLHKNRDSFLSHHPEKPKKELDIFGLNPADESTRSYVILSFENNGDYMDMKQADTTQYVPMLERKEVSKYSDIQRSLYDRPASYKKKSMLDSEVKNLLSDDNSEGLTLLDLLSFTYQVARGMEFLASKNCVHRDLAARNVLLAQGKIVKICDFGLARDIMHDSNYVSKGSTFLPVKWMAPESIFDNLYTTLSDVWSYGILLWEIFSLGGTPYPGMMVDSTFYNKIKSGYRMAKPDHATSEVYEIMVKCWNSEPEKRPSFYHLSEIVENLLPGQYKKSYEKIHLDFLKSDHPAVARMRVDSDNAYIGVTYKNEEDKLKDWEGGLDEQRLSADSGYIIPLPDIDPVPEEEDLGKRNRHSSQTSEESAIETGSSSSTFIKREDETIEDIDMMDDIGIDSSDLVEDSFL

For `CCOc1ccc(C(=O)NC(=S)Nc2ccc(Oc3ncnc4cc(OC)c(OC)cc34)cc2)cc1` [Example 716, N-{4-[(6,7-Dimethoxy-4-quinazolinyl)oxy]phenyl}-N′-(4-ethoxybenzoyl)thiourea], the pIC50 on PDGF-Ra was 7.96. Also, the inhibition at 1 µM at c-kit was found to be 19%.
`COc1cc2ncnc(Oc3ccc(NC(=S)NC(=O)c4cc(C)oc4C)cc3)c2cc1OC` [Example 718, N-{4-[(6,7-Dimethoxy-4-quinazolinyl)oxy]phenyl}-N′-[(2,5-dimethyl-3-furyl)carbonyl]thiourea]: on PDGF-Ra, the pIC50 was over 8.00. For the same compound, at c-kit, the inhibition at 1 µM was found to be 19%.
As for `CCCCC(=O)NC(=S)Nc1ccc(Oc2ccnc3cc(OC)c(OC)cc23)c(Cl)c1` [Example 719, N-{3-Chloro-4-[(6,7-dimethoxy-4-quinolyl)oxy]phenyl}-N′-pentanoylthiourea], the pIC50 on PDGF-Ra is 7.85; at c-kit, 6.37.
Regarding `CCCCC(=O)NC(=S)Nc1ccc(Oc2ncnc3cc(OC)c(OC)cc23)cc1` [Example 720, N-{4-[(6,7-Dimethoxy-4-quinazolinyl)oxy]phenyl}-N′-pentanoylthiourea], the values for the pIC50 on PDGF-Ra and on c-kit were 7.38 and 7.52, respectively.
Turning to `COc1cc2nccc(Oc3ccc(NC(=S)NC(=O)CCc4ccc(C)cc4)cc3)c2cc1OC` [Example 721, N-{4-[(6,7-Dimethoxy-4-quinolyl)oxy]phenyl}-N′-[3-(4-methylphenyl)propanoyl]thiourea], the pIC50 on PDGF-Ra is 7.44. Further, the inhibition at 1 µM at c-kit came to 20%.
Consider `COc1cc2ncnc(Oc3ccc(NC(=S)NC(=O)CCc4ccc(C)cc4)cc3)c2cc1OC` [Example 722, N-{4-[(6,7-Dimethoxy-4-quinazolinyl)oxy]phenyl}-N′-[3-(4-methylphenyl)propanoyl]thiourea], for which the pIC50 is over 8.00 at PDGF-Ra and 7.07 on c-kit.
For the compound `COc1cc2nccc(Oc3ccc(NC(=S)NC(=O)Cc4ccccc4Cl)cc3)c2cc1OC` [Example 723, N-[2-(2-Chlorophenyl)acetyl]-N′-{4-[(6,7-dimethoxy-4-quinolyl)oxy]phenyl}thiourea], the results for the pIC50 on PDGF-Ra and at c-kit were 7.77 and 6.42, respectively.
Taken in the same sequence, the figures for `COc1cc2ncnc(Oc3ccc(NC(=S)NC(=O)Cc4ccccc4Cl)cc3)c2cc1OC` [Example 724, N-[2-(2-Chlorophenyl)acetyl]-N′-{4-[(6,7-dimethoxy-4-quinazolinyl)oxy]phenyl}thiourea] were over 8.00 and 6.94.
For `COc1cc2nccc(Oc3ccc(NC(=S)NC(=O)CCCc4ccccc4)cc3)c2cc1OC` [Example 725, N-{4-[(6,7-Dimethoxy-4-quinolyl)oxy]phenyl}-N′-(4-phenylbutanoyl)thiourea], the values for the pIC50 on PDGF-Ra and at c-kit were over 8.00 and 6.38, respectively.
The matching figures for `COc1cc2nccc(Oc3ccc(NC(=S)NC(=O)CCCc4ccccc4)cc3Cl)c2cc1OC` [Example 726, N-{3-Chloro-4-[(6,7-dimethoxy-4-quinolyl)oxy]phenyl}-N′-(4-phenylbutanoyl)thiourea]: 7.43 and 6.20.
Taken in the same sequence, the figures for `COc1cc2nccc(Oc3ccc(NC(=S)NC(=O)Cc4ccccc4F)cc3Cl)c2cc1OC` [Example 730, N-{3-Chloro-4-[(6,7-dimethoxy-4-quinolyl)oxy]phenyl}-N′-[2-(2-fluorophenyl)acetyl]thiourea] were 7.47 and 6.20.
Consider `COc1cc2nccc(Oc3ccc(NC(=S)NC(=O)CCc4ccccc4C)cc3)c2cc1OC` [Example 731, N-{4-[(6,7-Dimethoxy-4-quinolyl)oxy]phenyl}-N′-[3-(2-methylphenyl)propanoyl]thiourea], for which the pIC50 is 7.77 on PDGF-Ra and 6.59 at c-kit.
As to `COc1ccccc1CC(=O)NC(=S)Nc1ccc(Oc2ccnc3cc(OC)c(OC)cc23)cc1` [Example 733, N-{4-[(6,7-Dimethoxy-4-quinolyl)oxy]phenyl}-N′-[2-(2-methoxyphenyl)acetyl]thiourea], the pIC50 on PDGF-Ra was 7.54; at c-kit, 6.73.
The matching figures for `COc1ccccc1CC(=O)NC(=S)Nc1ccc(Oc2ccnc3cc(OC)c(OC)cc23)c(Cl)c1` [Example 734, N-{3-Chloro-4-[(6,7-dimethoxy-4-quinolyl)oxy]phenyl}-N′-[2-(2-methoxyphenyl)acetyl]thiourea]: 7.54 and 6.67.
Taken in the same sequence, the figures for `COc1cc2nccc(Oc3ccc(NC(=S)NC(=O)COc4ccccc4)cc3)c2cc1OC` [Example 737, N-{4-[(6,7-Dimethoxy-4-quinolyl)oxy]phenyl}-N′-(2-phenoxyacetyl)thiourea] were over 8.00 and 6.28.
Taken in the same sequence, the figures for `COc1cc2nccc(Oc3ccc(NC(=S)NC(=O)COc4ccccc4)cc3Cl)c2cc1OC` [Example 738, N-{3-Chloro-4-[(6,7-dimethoxy-4-quinolyl)oxy]phenyl}-N′-(2-phenoxyacetyl)thiourea] were 7.96 and 6.57.
On to `COc1cc2nccc(Oc3ccc(NC(=S)NC(=O)COc4ccccc4C)cc3)c2cc1OC` [Example 739, N-{4-[(6,7-Dimethoxy-4-quinolyl)oxy]phenyl}-N′-[2-(2-methylphenoxy)acetyl]thiourea], for which the pIC50 on PDGF-Ra is over 8.00; on c-kit, 6.63.
The matching figures for `COc1cc2nccc(Oc3ccc(NC(=S)NC(=O)COc4ccccc4C)cc3Cl)c2cc1OC` [Example 740, N-{3-Chloro-4-[(6,7-dimethoxy-4-quinolyl)oxy]phenyl}-N′-[2-(2-methylphenoxy)acetyl]thiourea]: 7.64 and 6.47.
The matching figures for `COc1cc2nccc(Oc3ccc(NC(=S)NC(=O)[C@H](C)c4ccccc4)cc3)c2cc1OC` [Example 743, N-{4-[(6,7-Dimethoxy-4-quinolyl)oxy]phenyl}-N′-[(2R)-2-phenylpropanoyl]thiourea]: 8.00 and 6.26.
In the case of `CCC(C(=O)NC(=S)Nc1ccc(Oc2ccnc3cc(OC)c(OC)cc23)cc1)c1ccccc1` (centres unmarked) [Example 747, N-{4-[(6,7-Dimethoxy-4-quinolyl)oxy]phenyl}-N′-(2-phenylbutanoyl)thiourea], the pIC50 was 7.46 at PDGF-Ra and 6.12 on c-kit.
In the case of `COc1cc2nccc(Oc3ccc(NC(=S)NC(=O)C4(C)CC4(Cl)Cl)cc3)c2cc1OC` (centres unmarked) [Example 749, N-[(2,2-Dichloro-1-methylcyclopropyl)carbonyl]-N′-{4-[(6,7-dimethoxy-4-quinolyl)oxy]phenyl}thiourea], the pIC50 on PDGF-Ra is 7.92. The inhibition at 1 µM at c-kit turned out to be 41%.
`COc1cc2nccc(Oc3ccc(NC(=S)NC(=O)C4(C)CC4(Cl)Cl)cc3Cl)c2cc1OC` (centres unmarked) [Example 750, N-{3-Chloro-4-[(6,7-dimethoxy-4-quinolyl)oxy]phenyl}-N′-[(2,2-dichloro-1-methylcyclopropyl)carbonyl]thiourea]: the pIC50 at PDGF-Ra was 7.77. For the same compound, the inhibition at 1 µM at c-kit stood at 43%.
In the case of `CCCCOc1ccc(C(=O)NC(=S)Nc2ccc(Oc3ccnc4cc(OC)c(OC)cc34)cc2)cc1` [Example 751, N-(4-Butoxybenzoyl)-N′-{4-[(6,7-dimethoxy-4-quinolyl)oxy]phenyl}thiourea], on PDGF-Ra, the pIC50 is 7.15. In addition, the inhibition at 1 µM on c-kit was found to be 23%.
Regarding `CCCCCOc1ccc(C(=O)NC(=S)Nc2ccc(Oc3ccnc4cc(OC)c(OC)cc34)cc2)cc1` [Example 753, N-{4-[(6,7-Dimethoxy-4-quinolyl)oxy]phenyl}-N′-[4-(pentyloxy)benzoyl]thiourea], on PDGF-Ra, the negative logarithm of the IC50 (pIC50) was under 7.00 and the inhibition at 0.1 µM was 28%. Further, the inhibition at 1 µM at c-kit worked out at 9%.
In the case of `COc1cc2nccc(Oc3ccc(NC(=S)NC(=O)C4C(C)(C)C4(C)C)cc3)c2cc1OC` [Example 759], the pIC50 was 7.59 on PDGF-Ra and 6.49 at c-kit.
As to `COc1cc2nccc(Oc3ccc(NC(=S)NC(=O)C4C(C)(C)C4(C)C)cc3Cl)c2cc1OC` [Example 760, N-{3-Chloro-4-[(6,7-dimethoxy-4-quinolyl)oxy]phenyl}-N′-[(2,2,3,3-tetramethylcyclopropyl)carbonyl]thiourea], the pIC50 on PDGF-Ra was 7.08. Besides, at c-kit, the inhibition at 1 µM was determined as 48%.
Turning to `COc1cc2nccc(Oc3ccc(NC(=S)NC(=O)C(OC)c4ccccc4)cc3)c2cc1OC` (centres unmarked) [Example 761, N-{4-[(6,7-Dimethoxy-4-quinolyl)oxy]phenyl}-N′-(2-methoxy-2-phenylacetyl)thiourea], at PDGF-Ra, the pIC50 is under 7.00 and the inhibition at 0.1 µM stood at 37%. At c-kit, the inhibition at 1 µM was 44%.
`COc1cc2nccc(Oc3ccc(NC(=S)NC(=O)C(C)Oc4ccccc4Cl)cc3)c2cc1OC` (centres unmarked) [Example 763, N-[2-(2-Chlorophenoxy)propanoyl]-N′-{4-[(6,7-dimethoxy-4-quinolyl)oxy]phenyl}thiourea]: the pIC50 at PDGF-Ra was 7.89. Besides, at c-kit, the inhibition at 1 µM came out at 39%.
With `COc1cc2nccc(Oc3ccc(NC(=S)NC(=O)C(C)Oc4ccccc4Cl)cc3Cl)c2cc1OC` (centres unmarked) [Example 764, N-{3-Chloro-4-[(6,7-dimethoxy-4-quinolyl)oxy]phenyl}-N′-[2-(2-chlorophenoxy)propanoyl]thiourea], the pIC50 at PDGF-Ra was 7.85. Besides, the inhibition at 1 µM on c-kit came to 19%.
In the case of `COc1cc2nccc(Oc3ccc(NC(=S)NC(=O)C4CCCO4)cc3)c2cc1OC` (centres unmarked) [Example 765, N-{4-[(6,7-Dimethoxy-4-quinolyl)oxy]phenyl}-N′-tetrahydro-2-furanylcarbonylthiourea], the pIC50 on PDGF-Ra was 7.68; on c-kit, 6.03.

Usually pIC50 stands for the negative decadic logarithm of the IC50, by convention in mol/L. For orientation: inhibition means how much of the control response was suppressed.
